Test results published in ChEMBL document CHEMBL1201861, “Genomics of Drug Sensitity in Cancer screening data, Wellcome Trust Sanger Institute”.

test system: D-423MG; assay: cells; assay type: functional, cell-based; conditions: Homo sapiens
Description: SANGER: Inhibition of human D-423MG cell growth in a cell viability assay.

SMILES	IC50 [µM]
CS(=O)(=O)N1CCN(Cc2cc3nc(-c4cccc5[nH]ncc45)nc(N4CCOCC4)c3s2)CC1 [PICTILISIB]	1.1
O=C(NCCCNc1nc(Nc2cccc(NC(=O)N3CCCC3)c2)ncc1I)c1cccs1 [BX-795]	1.61
Cc1ccc(-n2nc(C(C)(C)C)cc2NC(=O)Nc2ccc(OCCN3CCOCC3)c3ccccc23)cc1 [DORAMAPIMOD]	> 10

test system: D-566MG; assay: cells; assay type: functional, cell-based; conditions: Homo sapiens

SMILES	IC50 [µM]
CS(=O)(=O)N1CCN(Cc2cc3nc(-c4cccc5[nH]ncc45)nc(N4CCOCC4)c3s2)CC1 [PICTILISIB]	1.63
O=C(NCCCNc1nc(Nc2cccc(NC(=O)N3CCCC3)c2)ncc1I)c1cccs1 [BX-795]	1.3
Cc1ccc(-n2nc(C(C)(C)C)cc2NC(=O)Nc2ccc(OCCN3CCOCC3)c3ccccc23)cc1 [DORAMAPIMOD]	> 10

test system: EPLC-272H; assay: cells; assay type: functional, cell-based; conditions: Homo sapiens
Description: SANGER: Inhibition of human EPLC-272H cell growth in a cell viability assay.

SMILES	IC50 [µM]
CS(=O)(=O)N1CCN(Cc2cc3nc(-c4cccc5[nH]ncc45)nc(N4CCOCC4)c3s2)CC1 [PICTILISIB]	0.687
O=C(NCCCNc1nc(Nc2cccc(NC(=O)N3CCCC3)c2)ncc1I)c1cccs1 [BX-795]	> 5
Cc1ccc(-n2nc(C(C)(C)C)cc2NC(=O)Nc2ccc(OCCN3CCOCC3)c3ccccc23)cc1 [DORAMAPIMOD]	> 10

test system: EW-12; assay: SANGER: Inhibition of human EW-12 cell growth in a cell viability assay.; assay type: functional, cell-based; conditions: Homo sapiens, EW-12

SMILES	IC50 [µM]
COc1ccc(N(C(=O)Oc2c(C)cccc2C)c2ccnc(Nc3ccc(N4CCN(C)CC4)cc3)n2)c(OC)c1	> 5.12
NC(=O)c1cccc(-c2cc(Nc3ccc(OC(F)(F)F)cc3)ncn2)c1	> 1.28
Cc1cc(N2CCOCC2)cc2[nH]c(-c3c(NC[C@@H](O)c4cccc(Cl)c4)cc[nH]c3=O)nc12	> 5.12
C=CC(=O)N1CCCC(Nc2nc(Nc3ccc(N(C)C(=O)CC)cc3)nc3[nH]cnc23)C1 (centres undefined)	> 10.2

test system: H-EMC-SS; assay: cells; assay type: functional, cell-based; conditions: Homo sapiens
Description: SANGER: Inhibition of human H-EMC-SS cell growth in a cell viability assay.

SMILES	IC50 [µM]
CS(=O)(=O)N1CCN(Cc2cc3nc(-c4cccc5[nH]ncc45)nc(N4CCOCC4)c3s2)CC1 [PICTILISIB]	> 4
O=C(NCCCNc1nc(Nc2cccc(NC(=O)N3CCCC3)c2)ncc1I)c1cccs1 [BX-795]	> 5
Cc1ccc(-n2nc(C(C)(C)C)cc2NC(=O)Nc2ccc(OCCN3CCOCC3)c3ccccc23)cc1 [DORAMAPIMOD]	> 10

test system: H9; assay: cells; assay type: functional, cell-based; conditions: Homo sapiens
Description: SANGER: Inhibition of human H9 cell growth in a cell viability assay.

SMILES	IC50 [µM]
Cc1ccc(-n2nc(C(C)(C)C)cc2NC(=O)Nc2ccc(OCCN3CCOCC3)c3ccccc23)cc1 [DORAMAPIMOD]	> 10

test system: KNS-62; assay: cells; assay type: functional, cell-based; conditions: Homo sapiens;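 note: inhibition of cell growth, read out with a cell viability assay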
Description: SANGER: Inhibition of human KNS-62 cell growth in a cell viability assay.

SMILES	IC50 [µM]
CS(=O)(=O)N1CCN(Cc2cc3nc(-c4cccc5[nH]ncc45)nc(N4CCOCC4)c3s2)CC1 [PICTILISIB]	3.92
O=C(NCCCNc1nc(Nc2cccc(NC(=O)N3CCCC3)c2)ncc1I)c1cccs1 [BX-795]	> 5
Cc1ccc(-n2nc(C(C)(C)C)cc2NC(=O)Nc2ccc(OCCN3CCOCC3)c3ccccc23)cc1 [DORAMAPIMOD]	> 10

test system: NCI-H1048; assay: cells; assay type: functional, cell-based; conditions: Homo sapiens;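 note: growth inhibition of human NCI-H1048 cells, read out with a cell viability assay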
Description: SANGER: Inhibition of human NCI-H1048 cell growth in a cell viability assay.

SMILES	IC50 [µM]
CS(=O)(=O)N1CCN(Cc2cc3nc(-c4cccc5[nH]ncc45)nc(N4CCOCC4)c3s2)CC1 [PICTILISIB]	2.11
O=C(NCCCNc1nc(Nc2cccc(NC(=O)N3CCCC3)c2)ncc1I)c1cccs1 [BX-795]	1.79
Cc1ccc(-n2nc(C(C)(C)C)cc2NC(=O)Nc2ccc(OCCN3CCOCC3)c3ccccc23)cc1 [DORAMAPIMOD]	> 10

test system: NCI-H128; assay: SANGER: Inhibition of human NCI-H128 cell growth in a cell viability assay.; assay type: functional, cell-based; conditions: Homo sapiens, NCI-H128

SMILES	IC50 [µM]
COc1ccc(N(C(=O)Oc2c(C)cccc2C)c2ccnc(Nc3ccc(N4CCN(C)CC4)cc3)n2)c(OC)c1	> 5.12
NC(=O)c1cccc(-c2cc(Nc3ccc(OC(F)(F)F)cc3)ncn2)c1	> 1.28
Cc1cc(N2CCOCC2)cc2[nH]c(-c3c(NC[C@@H](O)c4cccc(Cl)c4)cc[nH]c3=O)nc12	> 5.12
C=CC(=O)N1CCCC(Nc2nc(Nc3ccc(N(C)C(=O)CC)cc3)nc3[nH]cnc23)C1 (centres undefined)	> 10.2

test system: NCI-H2029; assay: cells; assay type: functional, cell-based; conditions: Homo sapiens;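 note: Read-out is a viability assay on the cultured cells, and IC50 is the concentration that suppresses cell growth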
Description: SANGER: Inhibition of human NCI-H2029 cell growth in a cell viability assay.

SMILES	IC50 [µM]
CS(=O)(=O)N1CCN(Cc2cc3nc(-c4cccc5[nH]ncc45)nc(N4CCOCC4)c3s2)CC1 [PICTILISIB]	> 4
O=C(NCCCNc1nc(Nc2cccc(NC(=O)N3CCCC3)c2)ncc1I)c1cccs1 [BX-795]	> 5
Cc1ccc(-n2nc(C(C)(C)C)cc2NC(=O)Nc2ccc(OCCN3CCOCC3)c3ccccc23)cc1 [DORAMAPIMOD]	> 10

test system: NCI-H2107; assay: SANGER: Inhibition of human NCI-H2107 cell growth in a cell viability assay.; assay type: functional, cell-based; conditions: not given

SMILES	IC50 [µM]
COc1ccc(N(C(=O)Oc2c(C)cccc2C)c2ccnc(Nc3ccc(N4CCN(C)CC4)cc3)n2)c(OC)c1	> 5.12
NC(=O)c1cccc(-c2cc(Nc3ccc(OC(F)(F)F)cc3)ncn2)c1	> 1.28
Cc1cc(N2CCOCC2)cc2[nH]c(-c3c(NC[C@@H](O)c4cccc(Cl)c4)cc[nH]c3=O)nc12	> 5.12
C=CC(=O)N1CCCC(Nc2nc(Nc3ccc(N(C)C(=O)CC)cc3)nc3[nH]cnc23)C1 (centres undefined)	> 10.2

test system: OC-314; assay: cells; assay type: functional, cell-based; conditions: Homo sapiens
Description: SANGER: Inhibition of human OC-314 cell growth in a cell viability assay.

SMILES	IC50 [µM]
CS(=O)(=O)N1CCN(Cc2cc3nc(-c4cccc5[nH]ncc45)nc(N4CCOCC4)c3s2)CC1 [PICTILISIB]	> 4
O=C(NCCCNc1nc(Nc2cccc(NC(=O)N3CCCC3)c2)ncc1I)c1cccs1 [BX-795]	3.05
Cc1ccc(-n2nc(C(C)(C)C)cc2NC(=O)Nc2ccc(OCCN3CCOCC3)c3ccccc23)cc1 [DORAMAPIMOD]	> 10

test system: SW 1116; assay: cells; assay type: functional, cell-based; conditions: Homo sapiens;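 note: growth inhibition of SW1116 cells, read out with a cell viability assay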
Description: SANGER: Inhibition of human SW1116 cell growth in a cell viability assay.

SMILES	IC50 [µM]
CS(=O)(=O)N1CCN(Cc2cc3nc(-c4cccc5[nH]ncc45)nc(N4CCOCC4)c3s2)CC1 [PICTILISIB]	> 4
O=C(NCCCNc1nc(Nc2cccc(NC(=O)N3CCCC3)c2)ncc1I)c1cccs1 [BX-795]	> 5
Cc1ccc(-n2nc(C(C)(C)C)cc2NC(=O)Nc2ccc(OCCN3CCOCC3)c3ccccc23)cc1 [DORAMAPIMOD]	> 10

test system: SW900; assay: cells; assay type: functional, cell-based; conditions: Homo sapiens;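 note: IC50 is the concentration that inhibits SW900 cell growth, measured by a cell viability assay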
Description: SANGER: Inhibition of human SW900 cell growth in a cell viability assay.

SMILES	IC50 [µM]
CS(=O)(=O)N1CCN(Cc2cc3nc(-c4cccc5[nH]ncc45)nc(N4CCOCC4)c3s2)CC1 [PICTILISIB]	> 4
O=C(NCCCNc1nc(Nc2cccc(NC(=O)N3CCCC3)c2)ncc1I)c1cccs1 [BX-795]	> 5
Cc1ccc(-n2nc(C(C)(C)C)cc2NC(=O)Nc2ccc(OCCN3CCOCC3)c3ccccc23)cc1 [DORAMAPIMOD]	> 10

test system: A549; assay: cells; assay type: functional, cell-based; conditions: Homo sapiens;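 note: growth inhibition of A549 cells, read out with a cell viability assay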
Description: SANGER: Inhibition of human A549 cell growth in a cell viability assay.

SMILES	IC50 [µM]
CS(=O)(=O)N1CCN(Cc2cc3nc(-c4cccc5[nH]ncc45)nc(N4CCOCC4)c3s2)CC1 [PICTILISIB]	1.4
O=C(NCCCNc1nc(Nc2cccc(NC(=O)N3CCCC3)c2)ncc1I)c1cccs1 [BX-795]	2.14
Cc1ccc(-n2nc(C(C)(C)C)cc2NC(=O)Nc2ccc(OCCN3CCOCC3)c3ccccc23)cc1 [DORAMAPIMOD]	> 10

test system: BALL-1; assay: cells; assay type: functional, cell-based; conditions: Homo sapiens;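 note: growth inhibition of BALL-1 cells, read out with a cell viability assay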
Description: SANGER: Inhibition of human BALL-1 cell growth in a cell viability assay.

SMILES	IC50 [µM]
CS(=O)(=O)N1CCN(Cc2cc3nc(-c4cccc5[nH]ncc45)nc(N4CCOCC4)c3s2)CC1 [PICTILISIB]	> 4
O=C(NCCCNc1nc(Nc2cccc(NC(=O)N3CCCC3)c2)ncc1I)c1cccs1 [BX-795]	> 5
Cc1ccc(-n2nc(C(C)(C)C)cc2NC(=O)Nc2ccc(OCCN3CCOCC3)c3ccccc23)cc1 [DORAMAPIMOD]	> 10

test system: BT-549; assay: cells; assay type: functional, cell-based; conditions: Homo sapiens
Description: SANGER: Inhibition of human BT-549 cell growth in a cell viability assay.

SMILES	IC50 [µM]
CS(=O)(=O)N1CCN(Cc2cc3nc(-c4cccc5[nH]ncc45)nc(N4CCOCC4)c3s2)CC1 [PICTILISIB]	> 4
O=C(NCCCNc1nc(Nc2cccc(NC(=O)N3CCCC3)c2)ncc1I)c1cccs1 [BX-795]	4.45
Cc1ccc(-n2nc(C(C)(C)C)cc2NC(=O)Nc2ccc(OCCN3CCOCC3)c3ccccc23)cc1 [DORAMAPIMOD]	> 10

test system: TI-73; assay: cells; assay type: functional, cell-based; conditions: Homo sapiens;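 note: cell viability assay measuring how much compounds suppress growth of the cultured cell line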
Description: SANGER: Inhibition of human TI-73 cell growth in a cell viability assay.

SMILES	IC50 [µM]
CS(=O)(=O)N1CCN(Cc2cc3nc(-c4cccc5[nH]ncc45)nc(N4CCOCC4)c3s2)CC1 [PICTILISIB]	> 4
O=C(NCCCNc1nc(Nc2cccc(NC(=O)N3CCCC3)c2)ncc1I)c1cccs1 [BX-795]	2.11
Cc1ccc(-n2nc(C(C)(C)C)cc2NC(=O)Nc2ccc(OCCN3CCOCC3)c3ccccc23)cc1 [DORAMAPIMOD]	> 10

test system: YH-13; assay: cells; assay type: functional, cell-based; conditions: Homo sapiens;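 note: cell viability readout of growth suppression in the human YH-13 cell line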
Description: SANGER: Inhibition of human YH-13 cell growth in a cell viability assay.

SMILES	IC50 [µM]
CS(=O)(=O)N1CCN(Cc2cc3nc(-c4cccc5[nH]ncc45)nc(N4CCOCC4)c3s2)CC1 [PICTILISIB]	0.304
O=C(NCCCNc1nc(Nc2cccc(NC(=O)N3CCCC3)c2)ncc1I)c1cccs1 [BX-795]	0.629
Cc1ccc(-n2nc(C(C)(C)C)cc2NC(=O)Nc2ccc(OCCN3CCOCC3)c3ccccc23)cc1 [DORAMAPIMOD]	> 10

test system: ZR-75-30; assay: cells; assay type: functional, cell-based; conditions: Homo sapiens;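 note: growth inhibition of ZR-75-30 cells, measured with a cell viability readout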
Description: SANGER: Inhibition of human ZR-75-30 cell growth in a cell viability assay.

SMILES	IC50 [µM]
CS(=O)(=O)N1CCN(Cc2cc3nc(-c4cccc5[nH]ncc45)nc(N4CCOCC4)c3s2)CC1 [PICTILISIB]	> 4
O=C(NCCCNc1nc(Nc2cccc(NC(=O)N3CCCC3)c2)ncc1I)c1cccs1 [BX-795]	> 5
Cc1ccc(-n2nc(C(C)(C)C)cc2NC(=O)Nc2ccc(OCCN3CCOCC3)c3ccccc23)cc1 [DORAMAPIMOD]	> 10

test system: CHP-134; assay: SANGER: Inhibition of human CHP-134 cell growth in a cell viability assay.; assay type: functional, cell-based; conditions: not given

SMILES	IC50 [µM]
CS(=O)(=O)N1CCN(Cc2cc3nc(-c4cccc5[nH]ncc45)nc(N4CCOCC4)c3s2)CC1 [PICTILISIB]	> 4
O=C(NCCCNc1nc(Nc2cccc(NC(=O)N3CCCC3)c2)ncc1I)c1cccs1 [BX-795]	1.94
Cc1ccc(-n2nc(C(C)(C)C)cc2NC(=O)Nc2ccc(OCCN3CCOCC3)c3ccccc23)cc1 [DORAMAPIMOD]	> 10
